This assay concerns bone marrow cells. The experiment in a line: Bone marrow EdU incorporation (S-phase) after single dose in dogs. The conditions noted are these: increasing single doses, 8 and 16 hours. Type of assay: in vivo.

In the case of `CN1CCN(c2ccc(Nc3ncc4cc5n(c4n3)C3(CCCCC3)CNC5=O)nc2)CC1` [Compound 1, 2′-((5-(4-methylpiperazin-1-yl)pyridin-2-yl)amino)-7′,8′-dihydro-6′H-spiro[cyclohexane-1,9′-pyrazino[1′,2′:1,5]pyrrolo[2,3-d]pyrimidin]-6′-one], the “bone marrow cells in S phase” value was “decrease in the number of cells in S phase”.

These data come from US20160220569A1, “CDK4/6 Inhibitor Dosage Formulations For The Protection Of Hematopoietic Stem And Progenitor Cells During Chemotherapy” (G1 Therapeutics, Inc., priority 2015, published 2016).
